Laboratory results reported in patent US8916567B2, “Certain crystalline hydrates, pharmaceutical compositions thereof and methods for preparation and use thereof” (Universal Technology Alliance, Inc., priority 2009, dated 2014).

Columns and labels:
E. feacium = assay: Minimum inhibitory concentration (MIC) in vitro, agar dilution method; format: cell-based; conditions: hydrate
Method in brief: (§1)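 MIC50, MIC90 and MIC range were compiled from per-strain MICs obtained by the agar dilution method recommended by CLSI/NCCLS, using clinically isolated strains from Sichuan and Beijing.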

S. epidermidis MRSE = assay: as above; format: cell-based; conditions: hydrate
Method in brief: as §1

[1] = system: Staphylococcus aureus MRSA; assay: as above; format: cell-based; conditions: hydrate
Method in brief: as §1

S. epidermidis MSSE = assay: as above; format: cell-based; conditions: hydrate
Method in brief: as §1

[2] = system: Staphylococcus aureus MSSA; assay: as above; format: cell-based; conditions: hydrate
Method in brief: as §1

E. feacalis = assay: as above; format: cell-based; conditions: hydrate
Method in brief: as §1

[3] = Solubility in different solvents according to Chinese Pharmacopeia (2005 edition); format: physicochemical; conditions: for Result: at the given solute:solvent ratio
Description: The solubility of the (S)—[N-3-(3′-fluoro-4′-(4″-phenylpiperazinyl))phenyl-2-oxo-5-oxazolelidinyl]methylacetamide hydrates was tested with different solvents, and the test results are shown in Tables 15-19. The solubility was measured according to Chinese Pharmacopeia (2005 edition).

Staphylococcus aureus = assay: Minimum inhibitory concentration (MIC) in vitro, agar dilution method, quality control strain; format: cell-based; conditions: strain S. AT C C25923 (Table 7 No. 1); hydrate
Source text: Hydrates Samples: • The 1/2 hydrates prepared according to Example 2; • Content (purity % wt): 99.0%; • The 1/12 hydrates prepared according to Example 253; • Content (purity % wt): 98.9%; • The 2/7 hydrates prepared according to Example 106; • Content (purity % wt): 98.8%; • The 2/5 hydrates prepared according to Example 162; • Content (purity % wt): 99.0%; • The 3/4 hydrates prepared according to Example 337; • Content (purity % wt): 98.8%; • Preparation: dissolved in DMSO, and further diluted with sterile distilled water to desired concentration. • The hydrates samples were supplied by Sichuan Beilike Biotechnology LTD.
Anhydrous Sample: • The anhydrous compounds prepared according to Example 1. • Content (purity % wt): 98.6%; • Preparation: dissolved in DMSO, and further diluted with sterile distilled water to desired concentration; • The anhydrous sample was supplied by Sichuan Beilike Biotechnology LTD.
Control Samples • Vancomycin: provided by Sichuan Beilike Biotechnology LTD, purchased from Eli Lilly Japan K.K. • Lot No.: WM16151 (production date: Apr. 10, 2007, expiration date: Apr. 9, 2009). • Specification: 500 mg/bottle; solubility (physicochemical properties): soluble in water. • Linezolid (LZ): provided by Sichuan Beilike Biotechnology LTD.
Bacteria Strains • Clinically isolated strains: clinically isolated bacterial pathogens collected in Sichuan and Beijing areas from March 2007 to May 2008. • Species include: Staphylococcus aureus MRSA, Staphylococcus aureus MSSA, S. epidermidis MRSE, S. epidermidis MSSE, E. feacalis, and E. feacium, a total of 51 strains. • Quality control strains: Staphylococcus aureus […] strain kept in Sichuan Industrial Institute of Antibiotics, purchased from the medical testing center of the Ministry of Health, China.
Experimental Method: • Measurement of the minimum inhibitory concentration (MIC) in vitro: • The minimum inhibitory concentration (MIC) of each test sample against test strains was measured by using the agar dilution method recommended by the U.S. National Committee for Clinical Laboratory Standards (CLSI/NCCIs).
Based on the CLSI/NCCL's testing standard with respect to vancomycin and linezolid (see Table 6), the minimum inhibitory concentration (MIC) values of every strain were reported, and the MIC50 (the concentration that inhibits 50% of the different strains of bacteria), MIC90 (the concentration that inhibits 90% of the different strains of bacteria), and MICrange (the range of the MIC value of the tested strains) were observed.

[4] = E. feacium (5 strains), clinically isolated
[5] = S. ep MRSE (10 strains), clinically isolated
[6] = S. MRSA (10 strains), clinically isolated
[7] = S. ep MSSE (10 strains), clinically isolated
[8] = S. MSSA (11 strains), clinically isolated
[9] = E. feacalis (5 strains), clinically isolated

Structure (SMILES): CC(=O)NC[C@H]1CN(c2ccc(N3CCN(c4ccccc4)CC3)c(F)c2)C(=O)O1 [1/12 hydrate, (S)—[N-3-(3′-fluoro-4′-(4″-phenylpiperazinyl))phenyl-2-oxo-5-oxazolidinyl]methyl acetamide 1/12 hydrate]
- MIC50 (E. feacium; [4]): 0.5 µg/mL
- MIC90 (E. feacium; [4]): 1 µg/mL
- MICrange (E. feacium; [4]): 0.25 to 1 µg/mL
- MIC (E. feacium; strain Efm 98 (Table 8 No. 21)): 0.25 µg/mL
- MIC (E. feacium; strain Efm 171 (Table 8 No. 25)): 0.5 µg/mL
- MIC (E. feacium; strain Efm 197 (Table 8 No. 22)): 0.5 µg/mL
- MIC (E. feacium; strain Efm N3 (Table 8 No. 23)): 1 µg/mL
- MIC (E. feacium; strain Efm N4 (Table 8 No. 24)): 0.5 µg/mL
- MIC50 (S. epidermidis MRSE; [5]): 0.25 µg/mL
- MIC90 (S. epidermidis MRSE; [5]): 0.5 µg/mL
- MICrange (S. epidermidis MRSE; [5]): 0.06 to 0.5 µg/mL
- MIC (S. epidermidis MRSE; strain S. ep MRSE4 (Table 8 No. 9)): 0.125 µg/mL
- MIC (S. epidermidis MRSE; strain S. ep MRSE20 (Table 8 No. 6)): 0.25 µg/mL
- MIC (S. epidermidis MRSE; strain S. ep MRSE87 (Table 8 No. 13)): 0.25 µg/mL
- MIC (S. epidermidis MRSE; strain S. ep MRSE90 (Table 8 No. 10)): 0.125 µg/mL
- MIC (S. epidermidis MRSE; strain S. ep MRSE101 (Table 8 No. 7)): 0.06 µg/mL
- MIC (S. epidermidis MRSE; strain S. ep MRSE105 (Table 8 No. 11)): 0.25 µg/mL
- MIC (S. epidermidis MRSE; strain S. ep MRSE140 (Table 8 No. 14)): 0.5 µg/mL
- MIC (S. epidermidis MRSE; strain S. ep MRSE142 (Table 8 No. 12)): 0.25 µg/mL
- MIC (S. epidermidis MRSE; strain S. ep MRSE210 (Table 8 No. 15)): 0.25 µg/mL
- MIC (S. epidermidis MRSE; strain S. ep MRSE211 (Table 8 No. 8)): 0.25 µg/mL
- MIC50 [1, 6]: 0.5 µg/mL
- MIC90 [1, 6]: 0.5 µg/mL
- MICrange [1, 6]: 0.25 to 0.5 µg/mL
- MIC ([1]; strain S. MRSA 29 (Table 7 No. 15)): 1 µg/mL
- MIC ([1]; strain S. MRSA 101 (Table 7 No. 14)): 0.5 µg/mL
- MIC ([1]; strain S. MRSA 201 (Table 7 No. 13)): 0.5 µg/mL
- MIC ([1]; strain S. MRSA B27 (Table 7 No. 21)): 0.5 µg/mL
- MIC ([1]; strain S. MRSA B105 (Table 7 No. 17)): 0.5 µg/mL
- MIC ([1]; strain S. MRSA B143 (Table 7 No. 19)): 0.5 µg/mL
- MIC ([1]; strain S. MRSA B151 (Table 7 No. 20)): 0.5 µg/mL
- MIC ([1]; strain S. MRSA B164 (Table 7 No. 16)): 0.5 µg/mL
- MIC ([1]; strain S. MRSA B199 (Table 7 No. 22)): 1 µg/mL
- MIC ([1]; strain S. MRSA B617 (Table 7 No. 18)): 0.25 µg/mL
- MIC50 (S. epidermidis MSSE; [7]): 0.25 µg/mL
- MIC90 (S. epidermidis MSSE; [7]): 0.5 µg/mL
- MICrange (S. epidermidis MSSE; [7]): 0.125 to 0.5 µg/mL
- MIC (S. epidermidis MSSE; strain S. ep MSSE87 (Table 7 No. 23)): 0.125 µg/mL
- MIC (S. epidermidis MSSE; strain S. ep MSSE88 (Table 8 No. 5)): 0.5 µg/mL
- MIC (S. epidermidis MSSE; strain S. ep MSSE113 (Table 7 No. 24)): 0.25 µg/mL
- MIC (S. epidermidis MSSE; strain S. ep MSSE116 (Table 7 No. 25)): 0.125 µg/mL
- MIC (S. epidermidis MSSE; strain S. ep MSSE118 (Table 8 No. 2)): 0.5 µg/mL
- MIC (S. epidermidis MSSE; strain S. ep MSSE119 (Table 7 No. 27)): 0.125 µg/mL
- MIC (S. epidermidis MSSE; strain S. ep MSSE137 (Table 8 No. 4)): 0.5 µg/mL
- MIC (S. epidermidis MSSE; strain S. ep MSSE140 (Table 8 No. 3)): 0.5 µg/mL
- MIC (S. epidermidis MSSE; strain S. ep MSSE142 (Table 7 No. 26)): 0.5 µg/mL
- MIC (S. epidermidis MSSE; strain S. ep MSSE153 (Table 8 No. 1)): 0.5 µg/mL
- MIC50 [2, 8]: 0.5 µg/mL
- MIC90 [2, 8]: 0.5 µg/mL
- MICrange [2, 8]: 0.25 to 0.5 µg/mL
- MIC ([2]; strain S. MSSA 123 (Table 7 No. 3)): 0.5 µg/mL
- MIC ([2]; strain S. MSSA 187 (Table 7 No. 7)): 0.5 µg/mL
- MIC ([2]; strain S. MSSA 195 (Table 7 No. 6)): 0.5 µg/mL
- MIC ([2]; strain S. MSSA 195 (Table 7 No. 12)): 0.5 µg/mL
- MIC ([2]; strain S. MSSA 201 (Table 7 No. 11)): 0.25 µg/mL
- MIC ([2]; strain S. MSSA 232 (Table 7 No. 2)): 0.5 µg/mL
- MIC ([2]; strain S. MSSA 275 (Table 7 No. 10)): 1 µg/mL
- MIC ([2]; strain S. MSSA 466 (Table 7 No. 8)): 0.25 µg/mL
- MIC ([2]; strain S. MSSA 519 (Table 7 No. 9)): 0.5 µg/mL
- MIC ([2]; strain S. MSSA 520 (Table 7 No. 4)): 0.5 µg/mL
- MIC ([2]; strain S. MSSA 580 (Table 7 No. 5)): 0.25 µg/mL
- MIC50 (E. feacalis; [9]): 0.125 µg/mL
- MIC90 (E. feacalis; [9]): 0.25 µg/mL
- MICrange (E. feacalis; [9]): 0.06 to 0.25 µg/mL
- MIC (E. feacalis; strain Efa 116 (Table 8 No. 16)): 0.25 µg/mL
- MIC (E. feacalis; strain Efa 907 (Table 8 No. 19)): 0.06 µg/mL
- Solubility compared with the anhydride ([3]; different solvents): sometimes more soluble than the anhydride
- Result ([3]; solvent 0.1N Hydrochloric acid): Dissolved
- Result ([3]; solvent 0.1N Sodium hydroxide): Insoluble
- Result ([3]; solvent Acetonitrile): Dissolved
- Result ([3]; solvent Ethanol): Dissolved
- Result ([3]; solvent Methanol): Dissolved
- Result ([3]; solvent Water, hydrate): Dissolved
- MIC (Staphylococcus aureus): 0.5 µg/mL
